Test results as given in EP4707393A1, “DOUBLE-STRANDED SIRNA, CONJUGATE THEREOF AND USE THEREOF” (CMS Research & Development Pte. Ltd., priority 2023, dated 2024).

Key:
[1] = system: human LPA gene (Genbank number: NM_005577.4); assay: Inhibitory activity against LPA mRNA, psiCHECK-2 dual-luciferase reporter vector in Huh7 cells; type: cell-based; details: Huh7 cells transfected with LPA_psiCHECK-2 plasmid, RNAiMAX transfection
Protocol: A stock solution was prepared by dissolving in PBS and stored at -20 °C.
The human LPA gene (Genbank number: NM_005577.4) was cloned into the psiCHECK™-2 vector.
Huh7 cells were cultured in DMEM (Gibco-11995-065, 500 mL) medium, supplemented with FBS (ExCellBio-FSP500, 57 mL), Penicillin-Streptomycin solution (Hyclone-SV30010, 5.7 mL), GlutaMAX™ (Gibco-35050-061, 5.7 mL) and Non-Essential Amino Acids Solution (Gibco-11140050, 5.7 mL).
On Day 1, a method for transfection of the LPA_PSICHECK (TM)-2 plasmid is briefly described as follows: Huh7 cells were washed with DPBS, followed by digestion with 0.05% trypsin, gently pipetted into single cells in DMEM containing 10% FBS, and counted. Plasmid DNA was transferred into Huh7 cells using Fugene HD. The transfected cells were seeded into 96-well plates at a density of 10,000 cells per well, with 100 µL culture medium per well. The cells were incubated overnight in a 5% CO2 incubator at 37 °C.
On Day 2, the test compounds were diluted serially with PBS to 3 concentrations.
RNAiMAX transfection reagent was prepared by blending homogeneously with Opti-MEM at a ratio of RNAiMAX: Opti-MEM=3:47 in a 15 mL centrifuge tube as needed. The compounds were mixed with the RNAiMAX/Opti-MEM (1:1) and incubated for 15 min. The compound-containing RNAiMAX/Opti-MEM mixture was diluted 10-fold with fresh medium and blended homogeneously.
The medium in each well was aspirated, and then 100 µL of the fresh compound-containing medium was added, and then incubated in a 5% CO2, 37 °C incubator.
Experimental procedures refer to DUAL-GLO® Dual Luciferase Assay System instructions, briefly described as follows: Taking out the cells from the incubator, aspirating and discarding the supernatant, adding 75µL fresh culture medium and 75µL detection reagent, shaking for 10 minutes in the dark, and after the cells had been fully lysed, transfering100µL sample to an opaque whiteboard for detecting the Firefly luminescence signal; adding 50 µL Dual-Glo®Stop & Glo® test reagent to each well and detecting the Renilla luciferase signal after shaking for 10 minutes in the dark. The ratio of the reporter signal to the internal control reporter signal was calculated for each well.
[formula] % Inhibition = (1-Sampleratio/RNAiMAXcontrolratio) × 100% [formula]

hPBMCs = assay: Immunogenicity test in hPBMCs (IL-6 and TNF-α ELISA of supernatant); type: cell-based, human; details: donor 1 hPBMCs, 18-20 h
Protocol: 1 Experimental material • 1.1 Double-stranded siRNA conjugates • 1.2 hPBMCs, purchased from Shanghai Sailybio Medical Co., LTD. • 1.3 Main reagents: Penicillin-Streptomycin (Cat. No.: 15140122), RNase-free water (Cat. No.: AM9938), IL-6 ELISA kit (Cat. No.: 555220), TNF-α ELISA kit (Cat. No.: 555212), LPS (Cat. No.: L2630), etc. 2 Experimental method • 2.1 Compound Preparation: Compounds were prepared as stock solutions with enzyme-free water. Compound weight = powder weight * purity. The concentration of prepared solutions was 900 µg/mL, followed by three-fold serial dilution with enzyme-free water. Each concentration was diluted 10-fold with 1640 medium, resulting in a final enzyme-free water content of 5.0%. • 2.2 Experimental procedure: • 2.2.1 PBMC cells were resuscitated one day in advance and incubated overnight in 1640 complete medium. • 2.2.2 On the day of the experiment, PBMC cells were centrifuged at 300 × g for 8 minutes, and the cell density was adjusted to 1.6 × 10^6 mL with 1640 complete medium. The cells were then added to a 96-well plate, 125 µL per well, and incubated in a 37 °C, 5% CO2 incubator for 15 minutes. • 2.2.3 The diluted test compounds were added to the 96-well plate according to the plate map, all in duplicate, 125 µL for each well; the positive control group and the blank group were added with an equal volume of 1640 complete culture medium containing the same amount of enzyme-free water. • 2.2.4 After gently shaking, the well plates were incubated in an incubator at 37 °C for 18-20 h. The supernatant was collected by centrifugation, and secretions of TNF-α and IL-6 were detected by ELISA. • 2.2.5 Data were analyzed using GraphPad Prism 8 software. 3 Experimental results Table 10. IL-6 and TNF-α levels in the cell supernatant of donor 1 hPBMCs treated with different doses of test compounds

Substance | EC50 [1] [nM] | also measured
Z37: siRNA conjugate: sense SEQ ID NO:51, ligand D18 at 3' end of sense strand, antisense SEQ ID NO:76 (sense CCTGCCAAGCTTGGTCATCTA; antisense TAGATGNCCAAGCTTGGCNGGTT; ligand D18 at sense 3' end; listed as RNA; modified_base 1..2: mod_base = OTHER; note = 2'-O-methylcytidine; modified_base 3: mod_base = OTHER; note = 2'-O-methyluridine; modified_base 4: mod_base = OTHER; note = 2'-O-methylguanosine; modified_base 5..6: mod_base = OTHER; note = 2'-O-m; modified_base 1: mod_base = OTHER; note = E-type vinylphosphonate-modified 2'-O-methyluridine; modified_base 2: mod_base = OTHER; note = 2'-deoxyadenosine; modified_base 4: mo) | 0.23 | 
Z41: siRNA conjugate: sense SEQ ID NO:49, ligand D01 at 3' end of sense strand, antisense SEQ ID NO:79 (sense CAGCCCCTTATTGTTATACGA; antisense NCGTATNACAATAAGGGGCNGTT; ligand D01 at sense 3' end; listed as RNA; modified_base 1: mod_base = OTHER; note = 2'-O-methylcytidine; modified_base 2: mod_base = OTHER; note = 2'-O-methyladenosine; modified_base 3: mod_base = OTHER; note = 2'-O-methylguanosine; modified_base 4..7: mod_base = OTHER; note = 2'-O-me; note = n is B29; note = 2'-deoxycytidine; modified_base 4: mod_base = OTHER; note = 2'-O-methyluridine; m) | 0.09 | IL-6 (hPBMCs; 5 µg/mL): 1362.7 pg/mL; TNF alpha (hPBMCs; 5 µg/mL): 37.3 pg/mL; IL-6 (hPBMCs; 15 µg/mL): 2424.8 pg/mL; TNF alpha (hPBMCs; 15 µg/mL): 94.0 pg/mL; IL-6 (hPBMCs; 45 µg/mL): 1537.6 pg/mL; TNF alpha (hPBMCs; 45 µg/mL): 44.7 pg/mL
Z49: siRNA conjugate: sense SEQ ID NO:51, ligand D01 at 3' end of sense strand, antisense SEQ ID NO:85 (sense CCTGCCAAGCTTGGTCATCTA; antisense NAGATGNCCAAGCTTGGCNGGTT; ligand D01 at sense 3' end; listed as RNA; modified_base 1..2: mod_base = OTHER; note = 2'-O-methylcytidine; modified_base 3: mod_base = OTHER; note = 2'-O-methyluridine; modified_base 4: mod_base = OTHER; note = 2'-O-methylguanosine; modified_base 5..6: mod_base = OTHER; note = 2'-O-m; modified_base 1: mod_base = OTHER; note = n is B36; modified_base 2: mod_base = OTHER; note = 2'-deoxyadenosine; note = 2'-O-methyladenosine) | 0.63 | 
Z50: siRNA conjugate: sense SEQ ID NO:51, ligand D01 at 3' end of sense strand, antisense SEQ ID NO:86 (sense CCTGCCAAGCTTGGTCATCTA; antisense TCTAGATNACCAAGCTTGGCAGG; ligand D01 at sense 3' end; listed as RNA; modified_base 1..2: mod_base = OTHER; note = 2'-O-methylcytidine; modified_base 3: mod_base = OTHER; note = 2'-O-methyluridine; modified_base 4: mod_base = OTHER; note = 2'-O-methylguanosine; modified_base 5..6: mod_base = OTHER; note = 2'-O-m; modified_base 1: mod_base = OTHER; note = 2'-fluoroadenosine; modified_base 5: mod_base = OTHER; note = 2'-O-methyl) | 0.41 | 
Z51: siRNA conjugate: sense SEQ ID NO:49, ligand D01 at 3' end of sense strand, antisense SEQ ID NO:87 (sense CAGCCCCTTATTGTTATACGA; antisense TCGTATNACAATAAGGGGCNGTT; ligand D01 at sense 3' end; listed as RNA; modified_base 1: mod_base = OTHER; note = 2'-O-methylcytidine; modified_base 2: mod_base = OTHER; note = 2'-O-methyladenosine; modified_base 3: mod_base = OTHER; note = 2'-O-methylguanosine; modified_base 4..7: mod_base = OTHER; note = 2'-O-me; note = 2'-O-methyluridine; note = 2'-deoxycytidine; modified_base 4: mod_base = OTHER; note = 2'-O-methyl) | 0.31 | 
Z52: siRNA conjugate: sense SEQ ID NO:53, ligand D01 at 3' end of sense strand, antisense SEQ ID NO:88 (sense CTTGCCAAGCTTGGTCATCTA; antisense TCTAGATGNCCAAGCTTGGCAAG; ligand D01 at sense 3' end; listed as RNA; modified_base 1: mod_base = OTHER; note = 2'-O-methylcytidine; modified_base 2: mod_base = OTHER; note = 2'-O-methyluridine; modified_base 3: mod_base = OTHER; modified_base 4: mod_base = OTHER; note = 2'-O-methylgua; note = 2'-fluoroadenosine; modified_base 5: mod_base = OTHER; note = 2'-O-methyl) | 0.14 | 
